# Test system: epidermal stem cell
# Source text: Unless otherwise specified, all mice used in this study were males of approximately 2 months of age and from a C57BL6 genetic background. Mice of a FVB genetic background (2 months-old) were also used in Supplementary FIG. S1. Generation and characteristics of the Terc−/− and the K15-EGFP mice were previously described (Morris et al., 2004; Blasco et al., 1997).
# To induce epidermal stem cell “mobilization” (activation, migration and proliferation), tail skin in the telogen (resting) phase of the hair cycle was topically treated every 48 h with TPA (20 nmol in acetone) for a total of four doses. Control mice of each genotype were treated with acetone alone. 24-hours after the last TPA treatment, mice were sacrificed and the tail skin analysed.
# For telomere length analyses, samples from mouse tail and back skin, small intestine, cornea, testis and brain were harvested and fixed o/n in neutralbuffered formalin at 4° C., dehydrated through graded alcohols and xylene, and embedded in paraffin. Prior to embedding, dissected skin was cut parallel to the spine in order to obtain longitudinal hair follicle sections. The intestinal tract was flushed with PBS and rolled up in a compact circle using longitudinally oriented jejunal sections for analysis. For cornea and testis analyses, whole eyes and testis were cut in half prior to dehydration. Finally, brain was coronal-dissected to harvest the rostral hippocampus. In all cases, […] sections were used for QFISH and immunostaining analyses.
# For Q-FISH, paraffin-embedded tissue sections were hybridized with a PNA-tel Cy3-labelled probe and telomere length was determined as described (González-Suárez et al., 2000; Muñoz et al., 2005; Zijlmans et al., 1997). Slides were deparaffinized in three xylene washes (3 m each), then treated for 3 m with a 100, 95 and 70% ethanol series, followed by telomere Q-FISH protocol performed as described (Samper et al., 2000). DAPI, Cy3 signals were acquired simultaneously into separate channels using a confocal ultraspectral microscope (Leica TCS-SP2-A-OBS-UV) using a PL APO 20×/0.70 PH2 as lens with Leica LCS software and maximum projections from image stacks (10 sections at steps 1.0 μm) were generated for image quantification. The DPSS-561 laser (Cy3 laser) was hold at a constant intensity to capture all the mouse tissues images.
# High throughput quantitative image analysis was performed on confocal images using the Metamorph platform (version 6.3r6; Molecular Devices, Union City, Calif.). The DAPI image was used to define the nuclear area and the Cy3 image to quantify of telomere fluorescence. In all cases, background noise was subtracted from each image prior to making […] measurements. The DAPI images were signal-intensity thresholded, segmented and converted to 1-bit binary image. The binary DAPI mask was applied to the matching Cy3 to obtain a combined image with telomere fluorescence information for each
# nucleus. Cy3 fluorescence intensity (telomere fluorescence) was measured as “average gray values” (total gray value/nuclei area) units (arbitrary units of fluorescence). These “average telomere fluorescence” values always represent the average Cy3 pixel intensity for the total nuclear area, and not the average value of individual telomere spot intensities, therefore ruling out that differences in nuclear size may influence telomere length measurements. A code of four colours was used to classify the nuclei according to their average telomere fluorescence. Telomere fluorescence ranges were initially set up to allocate in each range roughly ¼ of the total cells of a given tissue in wild type mice of 2 months of age. […] Telomere fluorescence ranges of a given tissue obtained in this manner were then maintained constant between genotypes, treatment and ages to facilitate comparisons.
# [1] = wild-type mice, TPA-treated vs untreated, FIG. 1d, significant
# [2] = wild-type mice, upon TPA treatment, FIG. 6
structure (smiles),measurement,setting,value
CCCCCCCCCCCCCC(=O)O[C@@H]1[C@@H](C)[C@@]2(O)[C@@H](C=C(CO)C[C@]3(O)C(=O)C(C)=C[C@@H]23)[C@H]2C(C)(C)[C@]12OC(C)=O [TPA],percentage of cells with the longest telomeres at the TA compartments and the interfollicular epidermis,"telomerase-deficient G1 Terc-/- mice, TPA-treated skin, FIG. 1c,d",did not show increased percentage
same,percentage of cells with the longest telomeres at the hair bulge,"telomerase-deficient G1 Terc-/- mice, TPA-treated vs untreated skin, FIG. 1c",reduction
same,total number of epidermal cells showing the longest telomeres,"telomerase-deficient G1 Terc-/- mice, TPA-treated vs untreated skin, P<0.01, FIG. 1e",decreased
same,frequency of long telomeres in all hair follicle compartments (telomere length histograms),"telomerase-deficient G1 Terc-/- mice, TPA-treated, FIG. 6",decreased frequency of long telomeres
same,total number of epidermal cells showing 1800-3000 a.u. of telomere fluorescence,"wild-type mice, TPA-treated vs untreated skin, P<0.05, FIG. 1e",significantly increased
same,cells with the longest telomeres in the TA compartments (hair bulb and infundibulum),"wild-type mice, TPA-treated vs untreated tail skin",accumulation
same,percentage of the cells with the longest telomeres at the hair bulge,"wild-type mice, TPA-treated vs untreated tail skin, longest telomeres = 1800-3000 a.u. telomere fluorescence",decreased
same,absolute number of cells containing the longest telomeres at the hair bulge,[1],decreased at the hair bulge
same,absolute number of cells containing the longest telomeres in the other epidermal compartments,[1],concomitantly increased
same,frequency of long telomeres in hair bulge cells (telomere length histograms),[2],decreased frequency of long telomeres
same,telomere length in cells located at the TA compartment and the interfollicular epidermis (telomere length histograms),[2],increased telomere length
